In publication PMC12389534, “Unlocking Therapeutic Potential of Novel Thieno-Oxazepine Hybrids as Multi-Target Inhibitors of AChE/BChE and Evaluation Against Alzheimer’s Disease: In Vivo, In Vitro, Histopathological, and Docking Studies” (Pharmaceuticals, 2025):

Legend:
[1] = tested on: AlCl3-induced AD rat model; assay: Morris water maze (MWM) test in AlCl3-induced AD rats; format: in vivo; settings: mean ± SE, n = 6
Experimental: (§1) All procedures were conducted conforming to the applicable National Institutes of Health standards and regulations for the Care and Use of Laboratory Animals. In this experiment, adult male Dawley rats in excellent condition weighing between 300 and 320 g were used. The animals were acquired from the Nile Company for Pharmaceuticals and Chemical Industries (Cairo, Egypt). They were placed in a controlled laboratory setting with unrestricted access to water, a temperature range of 24 to 26 °C, and 12 h a light–dark cycle. Three rats per cage were housed in polycarbonate cages that were individually packed with paper and encased with stainless steel wire.
Spatial learning and memory were inspected using the MWM test. Tap water was poured into a 150 cm diameter by 60 cm high circular water tank until it reached a depth of 30 cm (25 ± 2 °C). To make the water […], non-toxic white dye was applied. The east, west, north, and south quadrants of the pool were essentially separated into four equal sections. At a specific spot in the middle of one quadrant, an escape platform with a diameter of 10 cm was submerged 2 cm below the water’s surface. The platform stood in the exact same quadrant throughout the testing. The rats’ swimming route was recorded by a video camera situated above the pool. From a designated spot in each quadrant, each rat was submerged in the water with its back turned to the pool wall, and it was then left to swim to the platform. The rats received training sessions every day for three days in a row, with four trials conducted in each session. Before the next trial began, the animals were kept a maximum of 60 s to explore the hidden platform. After that, they were permitted to relax on it for 20 s. The rat was positioned gently on the platform and allowed 20 s to rest if it took longer than 60 s to locate it. The time taken to find the platform, or the escape latency, was documented. In order to do a probing test on the fourth day, the platform was detached away, and the rats were given 60 s to swim liberally. The time spent in the assigned quadrant was counted.

[2] = tested on: AlCl3-induced AD rat model; assay: Y-maze SAP test in AlCl3-induced AD rats; format: in vivo; settings: mean ± SE, n = 6
Experimental: as §1
One kind of short-term memory that SAP can represent is spatial working memory. Three arms, designated A, B, or C, were employed in a black hardwood Y-maze with a symmetrical triangular core space. Rats were briefly positioned at the edge of one arm and given 8 min to freely navigate around the maze. When the rat’s rear paws were fully inside the arm, the entries were counted. The following formula was used to determine SAP based on the total number of arm entries and alternations: SAP (%) = [number of alternations/(total arm entries − 2)] × 100 [94].

COc1cc2c(cc1OC)C(=O)C(CC1CCN(Cc3ccccc3)CC1)C2 (stereo not drawn) [Donepezil, reference compound]
Learning (s) ([1]; escape latency): 14.78 ± 0.83 ^ab s
Memory (s) ([1]; time spent in target quadrant): 42.67 ± 0.61 ^ab s
SAP% [2]: 85 ± 0.58 ^ab %
